Laboratory results from ChEMBL document CHEMBL1201862, “PubChem BioAssay data set” (2004).
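Method: 48-hour compound exposure of cells in 96-well plates, five concentrations, linear interpolation of endpoints. GI50 is the concentration that inhibits growth by half.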 Active and inactive are the calls of the source. Rule as the data show it: active = GI50 up to about 1.1 µM and inactive = higher.

Tests used:
Experiment in all cases: growth of human tumour cells (NCI), 48 h
T47D = test system: T47D
UO-31 = test system: UO-31
OVCAR-4 = test system: OVCAR-4
786-0 = test system: 786-0
LOX IMVI = test system: LOX IMVI
KM12 = test system: KM12
UACC-62 = test system: UACC-62
NCI-H226 = test system: NCI-H226
NCI-H460 = test system: NCI-H460
IGROV-1 = test system: IGROV-1
UACC-257 = test system: UACC-257
HCC 2998 = test system: HCC 2998
OVCAR-5 = test system: OVCAR-5
COLO 205 = test system: COLO 205
NCI-H23 = test system: NCI-H23
DU-145 = test system: DU-145
PC-3 = test system: PC-3
U-251 = test system: U-251
SNB-75 = test system: SNB-75
SW-620 = test system: SW-620

SMILES	GI50 (T47D)	GI50 (UO-31)	GI50 (OVCAR-4)	GI50 (786-0)	GI50 (LOX IMVI)	GI50 (KM12)	GI50 (UACC-62)	GI50 (NCI-H226)	GI50 (NCI-H460)	GI50 (IGROV-1)	GI50 (UACC-257)	GI50 (HCC 2998)	GI50 (OVCAR-5)	GI50 (COLO 205)	GI50 (NCI-H23)	GI50 (DU-145)	GI50 (PC-3)	GI50 (U-251)	GI50 (SNB-75)	GI50 (SW-620)
CN(C)CCCN1c2ccccc2CCc2cc([N+](=O)[O-])ccc21	18.7 µM (inactive)	22.2 µM (inactive)	24.4 µM (inactive)	24.5 µM (inactive)	19.1 µM (inactive)	26.4 µM (inactive)	14.5 µM (inactive)	24 µM (inactive)	20 µM (inactive)	20.3 µM (inactive)	20.1 µM (inactive)	17.7 µM (inactive)	25.5 µM (inactive)	21 µM (inactive)	26.5 µM (inactive)	24.4 µM (inactive)	25.4 µM (inactive)	26.3 µM (inactive)	–	–
c1csc(-c2cc(-c3ccsc3)cs2)c1	> 100 µM (inactive)	78.2 µM (inactive)	40.6 µM (inactive)	44.2 µM (inactive)	> 100 µM (inactive)	> 100 µM (inactive)	> 100 µM (inactive)	–	> 100 µM (inactive)	45.2 µM (inactive)	> 100 µM (inactive)	> 100 µM (inactive)	63.1 µM (inactive)	> 100 µM (inactive)	14.9 µM (inactive)	> 100 µM (inactive)	> 100 µM (inactive)	> 100 µM (inactive)	> 100 µM (inactive)	> 100 µM (inactive)
CC1CNC(c2ccc(CN3CCC(C4CCN(Cc5ccc(C6=NC(C)CN6)cc5)CC4)CC3)cc2)=N1 (stereo not given)	19.5 µM (inactive)	26.5 µM (inactive)	16.8 µM (inactive)	19.1 µM (inactive)	22.7 µM (inactive)	15.7 µM (inactive)	19.9 µM (inactive)	–	18.5 µM (inactive)	37.2 µM (inactive)	24.2 µM (inactive)	14.6 µM (inactive)	24.9 µM (inactive)	18.6 µM (inactive)	28 µM (inactive)	16.2 µM (inactive)	17.7 µM (inactive)	16 µM (inactive)	16.6 µM (inactive)	18.2 µM (inactive)
C=CCSC1=N/C(=C\c2cccs2)C(=O)N1CC=C	15.4 µM (inactive)	37.4 µM (inactive)	38.6 µM (inactive)	45.4 µM (inactive)	46.1 µM (inactive)	40 µM (inactive)	63.2 µM (inactive)	44.2 µM (inactive)	61.9 µM (inactive)	> 100 µM (inactive)	49.8 µM (inactive)	58.9 µM (inactive)	> 100 µM (inactive)	56.2 µM (inactive)	94.8 µM (inactive)	79.3 µM (inactive)	33.7 µM (inactive)	61.5 µM (inactive)	–	82.2 µM (inactive)
Cn1c2ccccc2n2c(N=O)c(-c3ccccc3)nc12	95.9 µM (inactive)	32.5 µM (inactive)	62.4 µM (inactive)	> 100 µM (inactive)	> 100 µM (inactive)	15.2 µM (inactive)	56.5 µM (inactive)	–	16.4 µM (inactive)	25.5 µM (inactive)	34.3 µM (inactive)	11.7 µM (inactive)	59.3 µM (inactive)	10.2 µM (inactive)	18.3 µM (inactive)	23.7 µM (inactive)	96.6 µM (inactive)	49.8 µM (inactive)	5.08 µM (inactive)	72.8 µM (inactive)
C[N+](C)(C)CC(=O)N/N=C/c1ccncc1	> 100 µM (inactive)	> 100 µM (inactive)	> 100 µM (inactive)	> 100 µM (inactive)	> 100 µM (inactive)	> 100 µM (inactive)	> 100 µM (inactive)	> 100 µM (inactive)	> 100 µM (inactive)	> 100 µM (inactive)	> 100 µM (inactive)	–	> 100 µM (inactive)	> 100 µM (inactive)	> 100 µM (inactive)	> 100 µM (inactive)	> 100 µM (inactive)	> 100 µM (inactive)	> 100 µM (inactive)	> 100 µM (inactive)
O=[N+]([O-])c1ccc2c(c1)nc1n2C(c2c(F)cccc2F)SC1 (stereo not given)	> 100 µM (inactive)	–	> 100 µM (inactive)	> 91.6 µM (inactive)	> 100 µM (inactive)	> 100 µM (inactive)	> 100 µM (inactive)	–	> 100 µM (inactive)	> 100 µM (inactive)	> 100 µM (inactive)	> 100 µM (inactive)	> 100 µM (inactive)	> 100 µM (inactive)	> 100 µM (inactive)	> 100 µM (inactive)	> 100 µM (inactive)	> 74.1 µM (inactive)	84.7 µM (inactive)	> 100 µM (inactive)
CC[C@H]1C=CCC[C@@]2(C[C@@H]3CC[C@@H]4[C@H](C(=O)OCCCCCCCCCCCCCCCC(=O)N(CCCN)C[C@@H](O)CCN)[C@]5(CCC[C@@H](C)O5)NC(=[N+]34)N2)O1	0.824 µM (active)	0.337 µM (active)	0.474 µM (active)	0.143 µM (active)	0.248 µM (active)	0.447 µM (active)	0.0678 µM (active)	0.968 µM (active)	0.443 µM (active)	0.239 µM (active)	0.122 µM (active)	0.175 µM (active)	0.083 µM (active)	0.316 µM (active)	0.92 µM (active)	0.731 µM (active)	0.385 µM (active)	0.381 µM (active)	–	0.352 µM (active)
CCOC(=O)C1(CC(=O)O)CCCC1=O (stereo not given)	> 100 µM (inactive)	> 100 µM (inactive)	> 100 µM (inactive)	> 100 µM (inactive)	> 100 µM (inactive)	> 100 µM (inactive)	> 100 µM (inactive)	> 100 µM (inactive)	> 100 µM (inactive)	> 100 µM (inactive)	> 100 µM (inactive)	–	> 100 µM (inactive)	> 100 µM (inactive)	> 100 µM (inactive)	> 100 µM (inactive)	> 100 µM (inactive)	> 100 µM (inactive)	> 100 µM (inactive)	> 100 µM (inactive)
COc1ccc2c(c1)[C@@]13CCCC[C@H]1[C@@H](C2)N(C)CC3=O	17.5 µM (inactive)	18.7 µM (inactive)	16.1 µM (inactive)	17.9 µM (inactive)	16.9 µM (inactive)	18.1 µM (inactive)	16.9 µM (inactive)	21.3 µM (inactive)	20.8 µM (inactive)	17.4 µM (inactive)	16.5 µM (inactive)	16.8 µM (inactive)	17.3 µM (inactive)	17.3 µM (inactive)	17.5 µM (inactive)	21.8 µM (inactive)	14.8 µM (inactive)	22.2 µM (inactive)	–	–
O=C1C(CN2CCCCC2)CCC1CN1CCCCC1 (stereo not given)	13.5 µM (inactive)	15 µM (inactive)	–	19.5 µM (inactive)	16 µM (inactive)	> 54.7 µM (inactive)	17.3 µM (inactive)	> 96.6 µM (inactive)	> 100 µM (inactive)	32.1 µM (inactive)	30.3 µM (inactive)	> 44.7 µM (inactive)	11.4 µM (inactive)	14.7 µM (inactive)	23.1 µM (inactive)	> 88.5 µM (inactive)	27.1 µM (inactive)	> 46.7 µM (inactive)	> 47.8 µM (inactive)	6.37 µM (inactive)
Cc1ccc(NC(=O)/C(Cc2cc(=O)oc3cc(O)ccc23)=N\NC(C)(C)C)cc1C	> 100 µM (inactive)	> 100 µM (inactive)	68.9 µM (inactive)	> 100 µM (inactive)	> 100 µM (inactive)	> 100 µM (inactive)	> 100 µM (inactive)	> 100 µM (inactive)	> 100 µM (inactive)	–	> 100 µM (inactive)	29.4 µM (inactive)	–	> 100 µM (inactive)	> 100 µM (inactive)	> 100 µM (inactive)	> 100 µM (inactive)	> 100 µM (inactive)	–	> 100 µM (inactive)
CCN(CC)c1ccc(/C=c2\nc(-c3ccccc3)n3c2nc2ccccc23)cc1	0.0256 µM (active)	13.5 µM (inactive)	3.17 µM (inactive)	4.27 µM (inactive)	2.04 µM (inactive)	6.47 µM (inactive)	10.5 µM (inactive)	14.5 µM (inactive)	1.98 µM (inactive)	7.82 µM (inactive)	21.9 µM (inactive)	2.72 µM (inactive)	77.3 µM (inactive)	5.14 µM (inactive)	20 µM (inactive)	26.8 µM (inactive)	1.93 µM (inactive)	2.1 µM (inactive)	–	4.7 µM (inactive)
CC(=O)OCC1OC(n2nc(Cc3ccccc3)c(=S)[nH]c2=S)C(OC(C)=O)C(OC(C)=O)C1OC(C)=O (stereo not given)	24.3 µM (inactive)	4.9 µM (inactive)	21.3 µM (inactive)	35.2 µM (inactive)	20.6 µM (inactive)	20.5 µM (inactive)	18.5 µM (inactive)	54.1 µM (inactive)	69 µM (inactive)	25 µM (inactive)	18.7 µM (inactive)	–	> 100 µM (inactive)	89.7 µM (inactive)	20.3 µM (inactive)	25.4 µM (inactive)	41.1 µM (inactive)	22.1 µM (inactive)	20.6 µM (inactive)	30 µM (inactive)
[N-]=[N+]=CC(=O)C1CCN(c2ccccc2)C1=O (stereo not given)	> 10 µM (inactive)	> 10 µM (inactive)	> 10 µM (inactive)	> 10 µM (inactive)	> 10 µM (inactive)	> 10 µM (inactive)	> 10 µM (inactive)	> 10 µM (inactive)	> 10 µM (inactive)	> 10 µM (inactive)	> 10 µM (inactive)	> 10 µM (inactive)	> 10 µM (inactive)	> 10 µM (inactive)	> 10 µM (inactive)	> 10 µM (inactive)	> 10 µM (inactive)	> 10 µM (inactive)	–	> 10 µM (inactive)
